“Also recorded” adds a separate entry of the source.
Columns and labels:
[1] = Tolerability: mouse weight and organ histology; type: in vivo; settings: 30 mg/kg/day for 2 weeks
Procedure: Z36-MP5 was chosen for further validation and experimental therapeutics in vivo. […] To investigate its cellular inhibitory activity, B16F10 cells were treated with Z36-MP5 at concentrations ranging from 5 to 100 µM, and the activation of Mi-2β target genes measured by RT-qPCR. […] In addition, the pharmacokinetic properties of Z36-MP5 in Sprague-Dawley rats with administration of intraperitoneal injection dose of 1.0 mg/kg. […] To exclude any effects on the host cells, we implanted Mi-2β-null melanoma cells into C57BL6 mice and then treated the mice with Z36-MP5 accompanied by anti-PD-1 therapy.
Supplementary Figure 8. In vitro assay for Mi-2β inhibitors. a The body weight changes of C57BL/6J mice treated with Z36-MP5 (30 mg/kg/day) for 2 weeks. Data are mean ± SEM (n=5). b H&E staining of tissues in C57BL/6J mice treated with or without Z36 -MP5 (30 mg/kg/day) for 2 weeks. […]
The growth of tumor grafts was measured. n = 5. g Mice bearing B16F10 cell s were treated with MS177 (100 mg/kg, 5 days) and then Z36 -MP5 (30 mg/kg/day) or vehicles, accompanied with anti -PD-1 antibody […]

[2] = system: H3K27me3 and H3K27ac in melanoma cells (B16F10, PM); experiment: Western blot of epigenetic modifications of H3; type: cell-based, mouse
Procedure: The lysis buffer (50 mM Tris pH 7.4, 1% Triton X-100, 0.5 mM EDTA, 0.5 mM EGTA, 150 mM NaCl, 10% glycerol, 1 mM phenylmethylsulfonyl fluoride and complete protease inhibitor cocktail (Roche)) were used to prepare the whole-cell lysates, which was followed by homogenization and centrifuge (14,000 rpm for 15 min at 4 °C). Pierce BCA Protein Assay Kit (Thermo Fisher Scientific) was used to detect protein concentration. After SDS-PAGE separation and PVDF membrane (BIO-RAD) transfer of the proteins, the specific primary was probed at 4 °C for overnight, before incubated with corresponding horseradish peroxidase (HRP)-conjugated 2nd antibodies. Pierce ECL Western Blotting Substrate (Thermo Fisher Scientific) was used for protein detection. Antibodies were: anti-Mi-2β(1:1000), anti-EZH2 (ab70469, Abcam) (1:1000), anti-β-actin-peroxidase antibody (AC15) (1:5000) and anti-rabbit secondary antibody (A-4914) (1:10,000). Antibody information have shown in Supplementary data 3.
Supplementary Figure 10. […] A mouse survival curve is shown, with log-rank test for mouse survival P value. b,c The epigenetic modifications of H3 (H3K27ac, H3K27me1 and H3K27me3) were measured in B16F10 cells stimulated with GSK126 or Z36-MP5 as indicated (n = 3, independent experiments). d The amount of secreted Cxcl9 and Cxcl10 was measured by ELISA in […]

[3] = system: 468 kinases; experiment: KINOMEscan screening (DiscoveRx); type: binding; settings: 1000 nM
[4] = Estimated blood concentration in mice; type: in vivo; settings: intraperitoneal 30 mg per kg, extrapolated from rat
Description: FLT3 kinase inhibitor for acute myeloid leukemia with FLT3 mutations. J Med Chem, 61, 3855-3869 (2018); Lexian Tong et al., Identification of 2-aminopyrimidine derivatives as FLT3 kinase inhibitors with high selectivity over c-KIT. J Med Chem, 65, 3229-3248 (2022)). In these cases, the cellular form of the FLT3-WT or FLT3-ITD mutant was preferentially bound. Another example is paclitaxel, a microtubule-stabilizing agent that is widely used in cancer chemotherapy. Biochemical competitive […]
(Shubhada Sharma, et al., Dissecting paclitaxel–microtubule association: quantitative assessment of the 2’-OH group. Biochemistry, 52, 2328-2336 (2013)). Paclitaxel sensitizes BG-1 ovarian cancer cells to radiation at a dose that was not cytotoxic and […]
sensitizer: a flow cytometric study. Gynecol Oncol, 50, 89-93 (1993)).
Like the Mi-2β silencing by shMi-2β (Supplementary Fig. 3C), we observed substantial increases in expressions of Mi-2β target genes, Cxcl9 and Cxcl10, to similar levels after treatment of B16F10 cells with Z36-MP5 at concentrations 5 μM to 100 μM (Fig. 5F).
MP5 treatment would be sufficient for inhibiting Mi-2β in cells. Moreover, we observed a maintenance of blood concentration of 4 μM to 10 μM Z36-MP5 in rat for around 1 hour after the intraperitoneal injection at a dose of Z36-MP5 as low as 1 mg per kg […]

## Cn1c(=O)[nH]c2ccc(-c3cccc(C(=O)NC4CCn5ccnc5C4)c3)cc21 (centres unmarked) [Z36-MP5]
[1]
  tolerability (mouse weight, organ tissue histological staining): tolerated without significant toxicity
[2]; PM cells, compared to GSK126 treatment
  H3K27ac level: only slightly increased
[2]; melanoma cells
  level of H3K27me3: repressed
[3]
  activity against 468 kinases: extremely high kinase selectivity; also recorded: not significantly active on any targets tested
[4]
  estimated highest blood concentration in mice: around 0.97 mM
